The conditions of series [1]: 101.33 kPa, Liquid, Vibrating tube method.
Series [2] is described as follows: activity coefficient (dimensionless); of the first substance listed, at infinite dilution; xn = mol fraction of the nth substance listed. The following applies: 101 kPa, Liquid, Chromatography, x1 = 0.

Molecules are shown by their SMILES. ± gives the expanded uncertainty stated by the source.

In general, mass density refers to mass per unit of volume. With `CCCC[N+]1(C)CCCC1.O=S(=O)([N-]S(=O)(=O)C(F)(F)F)C(F)(F)F`, the mass density in series [1] (293.15 K) was determined as 1397.4 ± 0.6 kg/m3; in series [1] (303.15 K), 1389.2 ± 0.6 kg/m3; in series [1] (313.15 K), 1381.1 ± 0.6 kg/m3; in series [1] (323.15 K), 1372.7 ± 0.6 kg/m3; in series [1] (333.15 K), 1364.1 ± 0.6 kg/m3.
Regarding `CCC[N+]1(C)CCCC1.O=S(=O)([N-]S(=O)(=O)C(F)(F)F)C(F)(F)F`, the mass density in series [1] (293.15 K) is 1430.1 ± 0.6 kg/m3; in series [1] (303.15 K) it was 1421.8 ± 0.6 kg/m3; in series [1] (313.15 K), 1412.8 ± 0.6 kg/m3; in series [1] (323.15 K), 1403.8 ± 0.6 kg/m3; in series [1] (333.15 K) it was 1394.4 ± 0.6 kg/m3.
As for `CCN(CC)CC` [triethylamine] + CCC[N+]1(C)CCCC1.O=S(=O)([N-]S(=O)(=O)C(F)(F)F)C(F)(F)F, the activity coefficient in series [2] (323.15 K) stood at 8.98 ± 0.61; in series [2] (333.15 K) it was 8.1 ± 0.55; in series [2] (343.15 K) it was 7.19 ± 0.49.
On to `CCCCCCCCCCC` [undecane] + CCCC[N+]1(C)CCCC1.O=S(=O)([N-]S(=O)(=O)C(F)(F)F)C(F)(F)F, for which the results for the activity coefficient in series [2] (323.15 K), in series [2] (333.15 K) and in series [2] (343.15 K) were 76.9 ± 5.3, 68.2 ± 4.7 and 61.1 ± 4.2, respectively.
With `CCCCCCCCCCC` [undecane] + CCC[N+]1(C)CCCC1.O=S(=O)([N-]S(=O)(=O)C(F)(F)F)C(F)(F)F, the figures for the activity coefficient in series [2] (323.15 K), in series [2] (333.15 K) and in series [2] (343.15 K) were 108 ± 7.4, 92.8 ± 6.4 and 85.1 ± 5.8, respectively.

The record behind these values is the NIST ThermoML archive (doi:10.1021/je4001894).
